pIC50: −log10 of the molar value.
Key:
[1] = target: RET (Homo sapiens, UniProt P07949); test: RET kinase inhibition, Caliper screening (fluorescent substrate phosphorylation, electrophoretic separation); settings: for RET Fold: fold of IC50 relative to sunitinib
[2] = target: VEGFR-2 (Homo sapiens, UniProt P35968); test: VEGFR-2 kinase inhibition, Caliper screening (fluorescent substrate phosphorylation, electrophoretic separation); settings: for VEGFR-2 Fold: fold of IC50 relative to sunitinib
Chain of VEGFR-2 (P35968 20-1356, species assumed): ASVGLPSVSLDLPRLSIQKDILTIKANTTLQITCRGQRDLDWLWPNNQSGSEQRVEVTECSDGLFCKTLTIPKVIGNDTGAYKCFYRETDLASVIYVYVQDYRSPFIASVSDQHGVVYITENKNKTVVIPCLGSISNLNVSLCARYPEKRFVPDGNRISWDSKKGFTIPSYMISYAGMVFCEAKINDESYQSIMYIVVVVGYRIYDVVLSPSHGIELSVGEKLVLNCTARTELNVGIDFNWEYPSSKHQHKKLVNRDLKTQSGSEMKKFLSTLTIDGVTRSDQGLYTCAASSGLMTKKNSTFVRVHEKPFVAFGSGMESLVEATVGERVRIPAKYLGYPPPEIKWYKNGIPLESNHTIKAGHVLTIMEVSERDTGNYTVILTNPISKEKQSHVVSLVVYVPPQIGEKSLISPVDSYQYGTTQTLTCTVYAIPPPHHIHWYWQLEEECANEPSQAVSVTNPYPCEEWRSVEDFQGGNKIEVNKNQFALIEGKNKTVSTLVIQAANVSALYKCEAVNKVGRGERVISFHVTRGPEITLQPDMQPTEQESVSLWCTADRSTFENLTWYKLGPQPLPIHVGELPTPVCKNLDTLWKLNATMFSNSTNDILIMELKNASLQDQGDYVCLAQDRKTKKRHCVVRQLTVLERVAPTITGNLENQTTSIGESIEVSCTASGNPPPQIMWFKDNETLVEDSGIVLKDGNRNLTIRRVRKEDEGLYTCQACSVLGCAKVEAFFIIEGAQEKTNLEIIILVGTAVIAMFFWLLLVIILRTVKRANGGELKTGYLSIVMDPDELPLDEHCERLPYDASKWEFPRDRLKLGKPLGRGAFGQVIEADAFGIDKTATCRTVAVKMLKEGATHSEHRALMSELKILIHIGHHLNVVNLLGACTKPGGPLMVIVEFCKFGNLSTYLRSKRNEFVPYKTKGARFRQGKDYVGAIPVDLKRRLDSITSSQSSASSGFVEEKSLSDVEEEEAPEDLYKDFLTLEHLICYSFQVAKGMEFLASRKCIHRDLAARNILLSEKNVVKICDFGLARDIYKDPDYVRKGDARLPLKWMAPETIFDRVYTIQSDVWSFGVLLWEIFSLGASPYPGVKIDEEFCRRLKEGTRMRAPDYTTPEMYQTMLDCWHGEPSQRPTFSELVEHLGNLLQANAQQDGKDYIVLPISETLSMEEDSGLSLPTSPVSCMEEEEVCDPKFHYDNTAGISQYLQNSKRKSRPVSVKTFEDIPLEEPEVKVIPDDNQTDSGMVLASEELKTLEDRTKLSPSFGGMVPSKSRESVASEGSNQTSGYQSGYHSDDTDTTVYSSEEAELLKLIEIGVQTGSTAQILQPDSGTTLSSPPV

[3] = target: c-Kit (Homo sapiens, UniProt P10721); test: c-Kit tyrosine kinase inhibition, Caliper screening (fluorescent substrate phosphorylation, electrophoretic separation); assay type: biochemical; settings: for pIC50: averages of replicate wells; for c-Kit Fold: fold of IC50 relative to sunitinib
Chain of c-Kit (P10721 26-976): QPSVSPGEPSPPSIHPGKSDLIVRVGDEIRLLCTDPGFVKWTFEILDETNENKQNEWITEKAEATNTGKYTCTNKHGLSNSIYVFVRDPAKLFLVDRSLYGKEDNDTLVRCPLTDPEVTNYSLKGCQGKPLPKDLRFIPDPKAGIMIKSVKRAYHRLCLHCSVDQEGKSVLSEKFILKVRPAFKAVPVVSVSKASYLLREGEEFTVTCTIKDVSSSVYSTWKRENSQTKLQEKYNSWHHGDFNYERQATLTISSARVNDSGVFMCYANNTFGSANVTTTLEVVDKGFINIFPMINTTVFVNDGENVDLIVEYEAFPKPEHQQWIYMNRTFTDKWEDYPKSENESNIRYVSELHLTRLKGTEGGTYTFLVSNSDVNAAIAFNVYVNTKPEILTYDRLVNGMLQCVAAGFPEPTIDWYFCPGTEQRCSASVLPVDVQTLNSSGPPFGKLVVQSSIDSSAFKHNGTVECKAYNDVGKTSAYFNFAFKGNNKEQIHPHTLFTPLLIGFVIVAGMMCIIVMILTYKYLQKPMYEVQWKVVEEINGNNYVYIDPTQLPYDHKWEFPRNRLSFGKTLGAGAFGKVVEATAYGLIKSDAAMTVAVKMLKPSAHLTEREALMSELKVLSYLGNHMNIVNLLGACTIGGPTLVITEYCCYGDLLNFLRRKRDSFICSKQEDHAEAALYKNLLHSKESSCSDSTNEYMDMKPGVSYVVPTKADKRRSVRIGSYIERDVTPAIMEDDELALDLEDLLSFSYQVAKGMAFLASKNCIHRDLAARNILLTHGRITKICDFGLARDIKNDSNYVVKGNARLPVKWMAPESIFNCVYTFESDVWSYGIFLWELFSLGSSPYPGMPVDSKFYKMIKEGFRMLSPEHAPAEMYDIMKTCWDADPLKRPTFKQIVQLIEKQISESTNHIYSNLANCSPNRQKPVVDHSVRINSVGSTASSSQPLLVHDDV

[4] = concentration 1.0E−05 (unit not given)
[5] = concentration 1.0E−06 (unit not given)
[6] = concentration 1.0E−07 (unit not given)
[7] = concentration 1.0E−08 (unit not given)
[8] = concentration 1.0E−09 (unit not given)
[9] = concentration 1.0E−10 (unit not given)
[10] = concentration 3.0E−05 (unit not given)
[11] = concentration 3.0E−06 (unit not given)
[12] = concentration 3.0E−07 (unit not given)
[13] = concentration 3.0E−08 (unit not given)
[14] = concentration 3.0E−09 (unit not given)
[15] = concentration 3.0E−10 (unit not given)

Chain of RET (P07949 29-1114, species assumed): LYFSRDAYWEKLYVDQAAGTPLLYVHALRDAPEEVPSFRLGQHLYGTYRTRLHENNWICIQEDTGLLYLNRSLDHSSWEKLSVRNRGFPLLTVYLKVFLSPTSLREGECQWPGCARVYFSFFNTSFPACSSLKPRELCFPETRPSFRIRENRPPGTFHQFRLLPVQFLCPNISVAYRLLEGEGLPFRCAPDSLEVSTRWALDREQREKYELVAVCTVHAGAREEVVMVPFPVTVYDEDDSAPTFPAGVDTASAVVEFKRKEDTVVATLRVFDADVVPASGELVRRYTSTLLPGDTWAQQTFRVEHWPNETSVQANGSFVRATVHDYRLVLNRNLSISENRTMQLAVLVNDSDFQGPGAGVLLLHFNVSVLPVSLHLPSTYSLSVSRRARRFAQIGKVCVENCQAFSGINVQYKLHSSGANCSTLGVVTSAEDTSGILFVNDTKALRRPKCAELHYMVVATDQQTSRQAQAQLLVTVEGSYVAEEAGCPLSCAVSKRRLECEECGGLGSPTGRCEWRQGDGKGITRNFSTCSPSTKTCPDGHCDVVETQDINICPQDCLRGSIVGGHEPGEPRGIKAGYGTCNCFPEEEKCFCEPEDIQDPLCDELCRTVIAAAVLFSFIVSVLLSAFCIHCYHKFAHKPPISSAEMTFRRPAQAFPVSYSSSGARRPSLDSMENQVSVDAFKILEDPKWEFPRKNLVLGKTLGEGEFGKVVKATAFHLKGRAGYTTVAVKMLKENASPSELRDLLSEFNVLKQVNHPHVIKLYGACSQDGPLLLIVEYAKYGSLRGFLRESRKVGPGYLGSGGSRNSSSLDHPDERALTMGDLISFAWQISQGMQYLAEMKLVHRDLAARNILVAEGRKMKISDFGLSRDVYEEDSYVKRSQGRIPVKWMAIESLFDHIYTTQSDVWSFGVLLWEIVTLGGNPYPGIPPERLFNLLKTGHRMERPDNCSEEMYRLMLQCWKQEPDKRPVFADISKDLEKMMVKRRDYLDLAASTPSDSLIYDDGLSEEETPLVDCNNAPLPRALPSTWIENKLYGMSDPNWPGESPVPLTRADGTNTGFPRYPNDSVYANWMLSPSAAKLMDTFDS

COCCOCCOCCOCCOCCOCCOCCOCCOCCNC(=O)c1c(C)[nH]c(/C=C2\C(=O)Nc3ccc(F)cc32)c1C [mPEG9-semaxanib, (Z)-5-((5-fluoro-2-oxoindolin-3-ylidene)methyl)-2,4-dimethyl-1H-pyrrole-3-mPEG8-amide]
pIC50 [1]: 6.06
RET AVG % Activity at Specific Concentration [1, 4]: 5%
RET AVG % Activity at Specific Concentration [1, 5]: 49%
RET AVG % Activity at Specific Concentration [1, 6]: 90%
RET AVG % Activity at Specific Concentration [1, 7]: 105%
RET AVG % Activity at Specific Concentration [1, 8]: 104%
RET AVG % Activity at Specific Concentration [1, 9]: 100%
RET AVG % Activity at Specific Concentration [1, 10]: 0%
RET AVG % Activity at Specific Concentration [1, 11]: 21%
RET AVG % Activity at Specific Concentration [1, 12]: 74%
RET AVG % Activity at Specific Concentration [1, 13]: 96%
RET AVG % Activity at Specific Concentration [1, 14]: 101%
RET AVG % Activity at Specific Concentration [1, 15]: 97%
RET Fold [1]: 20.23
pIC50 [2]: 6.52
VEGFR-2 AVG % Activity at Specific Concentration [2, 4]: 1%
VEGFR-2 AVG % Activity at Specific Concentration [2, 5]: 20%
VEGFR-2 AVG % Activity at Specific Concentration [2, 6]: 61%
VEGFR-2 AVG % Activity at Specific Concentration [2, 7]: 77%
VEGFR-2 AVG % Activity at Specific Concentration [2, 8]: 84%
VEGFR-2 AVG % Activity at Specific Concentration [2, 9]: 89%
VEGFR-2 AVG % Activity at Specific Concentration [2, 10]: −1%
VEGFR-2 AVG % Activity at Specific Concentration [2, 11]: 8%
VEGFR-2 AVG % Activity at Specific Concentration [2, 12]: 46%
VEGFR-2 AVG % Activity at Specific Concentration [2, 13]: 71%
VEGFR-2 AVG % Activity at Specific Concentration [2, 14]: 84%
VEGFR-2 AVG % Activity at Specific Concentration [2, 15]: 84%
VEGFR-2 Fold [2]: 6.12
pIC50 [3]: 6.41
c-Kit AVG % Activity at Specific Concentration [3, 4]: 0%
c-Kit AVG % Activity at Specific Concentration [3, 5]: 16%
c-Kit AVG % Activity at Specific Concentration [3, 6]: 90%
c-Kit AVG % Activity at Specific Concentration [3, 7]: 102%
c-Kit AVG % Activity at Specific Concentration [3, 8]: 105%
c-Kit AVG % Activity at Specific Concentration [3, 9]: 95%
c-Kit AVG % Activity at Specific Concentration [3, 10]: −1%
c-Kit AVG % Activity at Specific Concentration [3, 11]: 2%
c-Kit AVG % Activity at Specific Concentration [3, 12]: 60%
c-Kit AVG % Activity at Specific Concentration [3, 13]: 100%
c-Kit AVG % Activity at Specific Concentration [3, 14]: 105%
c-Kit AVG % Activity at Specific Concentration [3, 15]: 102%
c-Kit Fold [3]: 5.30

COCCOCCOCCOCCOCCOCCOCCOCCNC(=O)c1c(C)[nH]c(/C=C2\C(=O)Nc3ccc(F)cc32)c1C [mPEG8-semaxanib, (Z)-5-((5-fluoro-2-oxoindolin-3-ylidene)methyl)-2,4-dimethyl-1H-pyrrole-3-mPEG8-amide]
pIC50 [1]: 6.00
RET AVG % Activity at Specific Concentration [1, 4]: 5%
RET AVG % Activity at Specific Concentration [1, 5]: 52%
RET AVG % Activity at Specific Concentration [1, 6]: 92%
RET AVG % Activity at Specific Concentration [1, 7]: 100%
RET AVG % Activity at Specific Concentration [1, 8]: 102%
RET AVG % Activity at Specific Concentration [1, 9]: 100%
RET AVG % Activity at Specific Concentration [1, 10]: 0%
RET AVG % Activity at Specific Concentration [1, 11]: 20%
RET AVG % Activity at Specific Concentration [1, 12]: 75%
RET AVG % Activity at Specific Concentration [1, 13]: 94%
RET AVG % Activity at Specific Concentration [1, 14]: 97%
RET AVG % Activity at Specific Concentration [1, 15]: 99%
RET Fold [1]: 23.02
pIC50 [2]: 6.37
VEGFR-2 AVG % Activity at Specific Concentration [2, 4]: −3%
VEGFR-2 AVG % Activity at Specific Concentration [2, 5]: 24%
VEGFR-2 AVG % Activity at Specific Concentration [2, 6]: 73%
VEGFR-2 AVG % Activity at Specific Concentration [2, 7]: 85%
VEGFR-2 AVG % Activity at Specific Concentration [2, 8]: 86%
VEGFR-2 AVG % Activity at Specific Concentration [2, 9]: 86%
VEGFR-2 AVG % Activity at Specific Concentration [2, 10]: −6%
VEGFR-2 AVG % Activity at Specific Concentration [2, 11]: 2%
VEGFR-2 AVG % Activity at Specific Concentration [2, 12]: 50%
VEGFR-2 AVG % Activity at Specific Concentration [2, 13]: 78%
VEGFR-2 AVG % Activity at Specific Concentration [2, 14]: 82%
VEGFR-2 AVG % Activity at Specific Concentration [2, 15]: 84%
VEGFR-2 Fold [2]: 8.78
pIC50 [3]: 6.52
c-Kit AVG % Activity at Specific Concentration [3, 4]: −1%
c-Kit AVG % Activity at Specific Concentration [3, 5]: 11%
c-Kit AVG % Activity at Specific Concentration [3, 6]: 75%
c-Kit AVG % Activity at Specific Concentration [3, 7]: 97%
c-Kit AVG % Activity at Specific Concentration [3, 8]: 98%
c-Kit AVG % Activity at Specific Concentration [3, 9]: 94%
c-Kit AVG % Activity at Specific Concentration [3, 10]: −1%
c-Kit AVG % Activity at Specific Concentration [3, 11]: 1%
c-Kit AVG % Activity at Specific Concentration [3, 12]: 49%
c-Kit AVG % Activity at Specific Concentration [3, 13]: 93%
c-Kit AVG % Activity at Specific Concentration [3, 14]: 98%
c-Kit AVG % Activity at Specific Concentration [3, 15]: 94%
c-Kit Fold [3]: 4.10

Reference: patent US11007270B2, “Polymer-semaxanib moiety conjugates” (Nektar Therapeutics, priority 2010, dated 2021)
